Measured values as given in paper PMC2811193, “Complementary Roles in Cancer Prevention: Protease Inhibitor Makes the Cancer Preventive Peptide Lunasin Bioavailable” (PLoS ONE, 2010).

Tests used:
MDA-MB-231 tumors = experiment: In situ TUNEL assay for apoptosis in xenograft tumor sections; type: in vivo, athymic NCr-nu/nu mice; conditions: lunasin 20 and 4 mg/kg (P = 0.0088, 0.0141 vs control), BBI 20 mg/kg i.p.
Description: In situ terminal deoxynucleotidyl transferase-mediated dUTP nick end labeling (TUNEL) assay was performed using ApopTag Detection Kit (Millipore, USA & Canada) and ran based on the manufacturer's protocol. Briefly, deparaffinized and rehydrated sections were pretreated with 20 µg/mL proteinase K for 15 min and incubated with terminal transferase and digoxigenin dUTP at 37°C for 1 h. After washing, sections were incubated with antidigoxigenin rhodamine (Millipore) and DAPI (Invitrogen), and slides were visualized by fluorescent microscopy (Axiophot 381). The apoptotic cells were calculated as percentage of positive cells over total number of cells counted in microscope at 400× magnification.

[1] = Bioavailability of 3H-lunasin after oral gavage with LES in CD-1 mice; type: in vivo
Description: Bioavailability studies in mice were done at North View Pacific Laboratories (Hercules, CA, USA), according with the Animal Care and Use Committee (ACUC) human guidelines. CD-1 mice (3-5 weeks old) were purchased from Jackson Laboratories (Bar Harbor, ME, USA) and conditioned on AIN76A diet for one week. Forty mice (20 male and 20 female) were fasted for 8 hrs before oral administration by gavage. Mice were separated into two groups, a control group receiving 240 mg of LES formulation and a treatment group receiving 240 mg of LES formulation plus 8 µCi of ^3H-lunasin (SibTech, Inc. Brookfield, CT, USA) in 0.1 mL of 10% sucrose solution. Four mice of each group were sacrificed at 3, 6, 9, 12 and 24 hrs after oral administration. The tissue samples were collected and prepared for scintillation counting by solubilizing in TS-2 tissue solubilizer (Research Products International Corp., Chicago, IL, USA) and addition of 15% benzoyl peroxide. Each sample was read in 5 ml of HionicFluor cocktail mix using a 1600TR liquid scintillation counter (Packard Inst. Meriden CT, USA).
Supplementary file pone.0008890.s001.tif: Figure S1 Recovery of ^3H-lunasin dose (expressed in percentage) in (-▴-) total, (-•-) tissues, and (-o-) gastrointestinal contents of mice at 3, 6, 9, 12, and 24 hours post-gavage of lunasin-enriched soy (LES). […]

skin papilloma = conditions: applied topically at 250 mg/week; SENCAR mice; cited from earlier work
Excerpt: […] […] This is consistent with another observation that lunasin slows down epidermal cell proliferation in mouse skin in the absence and presence of DMBA using a ^2H2O label ...

pancreatin = experiment: In vitro digestion of lunasin with pancreatin, with or without protease inhibitors; type: in vitro ADME, porcine; conditions: pig, pancreatin from porcine pancreas; in the presence of boiled KTI; pre-incubation with inhibitor 30 min at 25°C; pancreatin 1 h at 37°C; Western-Blot band intensity; read-out: lunasin remaining intact after digestion with pancreatin
Description: (§1) Figure 2 Soy-derived BBI and KTI protect synthetic lunasin from in vitro digestion. The upper, lighter bands are Coomassie Blue protein stains and the lower, darker bands are Western blots. (M) Markers, (1) Lunasin (600 ng) + pancreatin (600 ng) incubated for 0 h at 37°C, (2) Lunasin (600 ng) + pancreatin (600 ng) incubated for 1 h at 37°C, (3) Lunasin (600 ng) + BBI (18,000 ng, unboiled) + pancreatin (600 ng) incubated for 1 h at 37°C, (4). Lunasin (600 ng) + KTI (18,000 ng, unboiled) + pancreatin (600 ng) incubated for 1 h at 37°C, (5) Lunasin (600 ng) + BBI (18,000 ng, boiled) + pancreatin (600 ng) incubated for 1 h at 37°C, (6) Lunasin (600 ng)+KTI (18,000 ng, boiled) + pancreatin (600 ng) incubated for 1 h at 37°C, (7) BBI (unboiled), (8) KTI (unboiled).
(§2) In vitro digestion of lunasin was carried out following the method published in the United States Pharmacopeia. Synthetic lunasin (American Peptide Company, Inc. Sunnyvale, CA, USA) (5 µg) was incubated with the protease inhibitors BBI or KTI (Sigma, St. Louis, MO, USA) for 30 min at 25°C. Pancreatin from porcine pancreas (Sigma) was added (enzyme∶protein ratio of 1∶10) and solution was incubated at 37°C for 1 h. Tris-tricine sample buffer was added at the end of the reaction and immediately stopped by placing the tubes in a boiling water bath for 5 min. The digests were analyzed by SDS-PAGE and Western-Blot following the protocol previously described.

[2] = system: Pancreatin from porcine pancreas; experiment: as above; type: in vitro ADME; conditions: pre-incubation with inhibitor 30 min at 25°C, pancreatin 1 h at 37°C, Western-Blot band intensity
Description: as §1, §2

[3] = system: DMBA-induced NIH3T3 cells; experiment: Foci formation assay in DMBA-induced NIH3T3 cells; type: cell-based
Description: The foci formation assay was performed according to Reznikoff et al. NIH3T3 cells were obtained from American Type Culture Collection (ATCC) and cultured in RPMI 1640 medium supplemented with 10% fetal bovine serum (FBS) (Invitrogen, Carlsbad, CA, USA). Cells were plated at a density of 500 cells/well in 12-well plates, incubated overnight at 37°C and treated with lunasin or BBI for 4 hrs. Then, cells were treated with 1.5 µg/ml DMBA for 20 hrs. After washing with PBS, fresh medium was added. Peptides were added and medium was changed every week for 6 weeks. At the end of experiment, cells were washed with 0.9% NaCl, fixed with methanol, stained with Giemsa, and scored for transformed foci. The negative control was a set of cells receiving no DMBA, while the positive control consisted of cells induced by DMBA but without treatment.

## CC[C@H](C)[C@H](NC(=O)[C@H](CCCCN)NC(=O)[C@H](CCC(=O)O)NC(=O)[C@H](CCSC)NC(=O)[C@@H](NC(=O)[C@H](Cc1c[nH]cn1)NC(=O)[C@H](CCCCN)NC(=O)[C@H](CCC(=O)O)NC(=O)[C@H](CS)NC(=O)[C@@H]1CCCN1C(=O)[C@@H](NC(=O)[C@H](CC(C)C)NC(=O)[C@H](CC(N)=O)NC(=O)[C@@H](NC(=O)CNC(=O)[C@H](CCC(N)=O)NC(=O)[C@H](CC(C)C)NC(=O)[C@H](CCC(N)=O)NC(=O)[C@H](CCCCN)NC(=O)[C@H](CCCNC(=N)N)NC(=O)[C@H](CS)NC(=O)[C@H](CO)NC(=O)[C@H](CC(=O)O)NC(=O)[C@H](CCC(N)=O)NC(=O)[C@H](CCC(N)=O)NC(=O)[C@H](Cc1c[nH]cn1)NC(=O)[C@H](CCC(N)=O)NC(=O)[C@H](Cc1c[nH]c2ccccc12)NC(=O)[C@H](CCCCN)NC(=O)[C@@H](N)CO)C(C)C)[C@@H](C)O)[C@@H](C)CC)C(=O)N[C@@H](CCC(N)=O)C(=O)NCC(=O)N[C@@H](CCCNC(=N)N)C(=O)NCC(=O)N[C@@H](CC(=O)O)C(=O)N[C@@H](CC(=O)O)C(=O)N[C@@H](CC(=O)O)C(=O)N[C@@H](CC(=O)O)C(=O)N[C@@H](CC(=O)O)C(=O)N[C@@H](CC(=O)O)C(=O)N[C@@H](CC(=O)O)C(=O)N[C@@H](CC(=O)O)C(=O)N[C@@H](CC(=O)O)C(=O)O [lunasin]
MDA-MB-231 tumors
  TUNEL-positive apoptotic cells in tumors: significantly increased apoptosis
[1]; 3 hrs post-gavage, 3H-labelled synthetic lunasin (8 µCi) mixed with 240 mg LES, CD-1 mice fasted 8 hrs, scintillation counting of tissues
  total oral dose of lunasin absorbed: approximately 30%
[1]; oral gavage of 3H-lunasin with LES, CD-1 mice, 3H radioactivity in brain
  crossing of the blood-brain barrier: able to cross the blood-brain barrier
Skin papilloma
  suppression of skin papilloma formation compared with the control: 70%
pancreatin
  remaining at 1 h: 84%
[2]; in the presence of boiled BBI
  lunasin remaining intact after digestion with pancreatin: 98%
[2]; in the presence of unboiled BBI
  lunasin remaining intact after digestion with pancreatin: Approximately 93%
[2]; in the presence of unboiled KTI
  lunasin remaining intact after digestion with pancreatin: ~97%
[3]; 100 nM each
  lunasin more effective than BBI in foci formation inhibition on an equimolar basis: 18%
[3]; 100 nM peptide, 1.5 µg/ml DMBA, 6 weeks, n = 6
  reduction of foci formation: 73%
[3]; 1 µM lunasin extracted from the liver of LES-fed rats, n = 6
  suppression of foci formation: as effectively as an equimolar amount of synthetic lunasin
